Tests used:
Type in all cases: in vivo
Diabrotica balteata = assay: Activity against Diabrotica balteata (corn root worm), maize sprouts; details: 96 h, application rate 200 ppm, L2 larvae, 4 days after infestation, read-out: effect in at least one of the two categories (mortality or growth inhibition)
Method: Activity Against Diabrotica balteata (Corn Root Worm)
Maize sprouts placed onto an agar layer in 24-well microtiter plates were treated with aqueous test solutions prepared from 10'000 ppm DMSO stock solutions by spraying. After drying, the plates were infested with L2 larvae (6 to 10 per well). The samples were assessed for mortality and growth inhibition in comparison to untreated samples 4 days after infestation.

Myzus persicae [1] = assay: Activity against Myzus persicae (green peach aphid), systemic activity; details: 144 h, test rate 24 ppm, pea seedling roots in test solution, 6 days
Method: Activity Against Myzus persicae (Green Peach Aphid) Systemic Activity
Roots of pea seedlings infested with an aphid population of mixed ages were placed directly into aqueous test solutions prepared from 10'000 DMSO stock solutions. The samples were assessed for mortality 6 days after placing seedlings into test solutions.

Myzus persicae [2] = assay: Activity against Myzus persicae (green peach aphid), feeding/contact activity; details: foliar, 144 h, application rate 200 ppm, sunflower leaf discs, mixed ages, 6 days after infestation
Method: Activity Against Myzus persicae (Green Peach Aphid) Feeding/Contact Activity
Sunflower leaf discs were placed onto agar in a 24-well microtiter plate and sprayed with aqueous test solutions prepared from 10'000 ppm DMSO stock solutions. After drying, the leaf discs were infested with an aphid population of mixed ages. The samples were assessed for mortality 6 days after infestation.

Plutella xylostella = assay: Activity against Plutella xylostella (diamond back moth), artificial diet; details: 192 h, application rate 200 ppm, eggs, 8 days after infestation, read-out: effect in at least one of the two categories (mortality or growth inhibition)
Method: Activity Against Plutella xylostella (Diamond Back Moth)
24-well microtiter plates with artificial diet were treated with aqueous test solutions prepared from 10'000 ppm DMSO stock solutions by pipetting. After drying, Plutella eggs were pipetted through a plastic stencil onto a gel blotting paper and the plate was closed with it. The samples were assessed for mortality and growth inhibition in comparison to untreated samples 8 days after infestation.

Euschistus heros = assay: Activity against Euschistus heros (neotropical brown stink bug), soybean leaves; details: 120 h, application rate 200 ppm, N2 nymphs, 5 days after infestation, read-out: effect in at least one of the two categories (mortality or growth inhibition)
Method: Activity Against Euschistus heros (Neotropical Brown Stink Bug)
Soybean leaves on agar in 24-well microtiter plates were sprayed with aqueous test solutions prepared from 10'000 ppm DMSO stock solutions. After drying the leaves were infested with N2 nymphs. The samples were assessed for mortality and growth inhibition in comparison to untreated samples 5 days after infestation.

Chilo suppressalis = assay: Activity against Chilo suppressalis (striped rice stemborer), artificial diet; details: 144 h, application rate 200 ppm, L2 larvae, 6 days after infestation
Method: Activity Against Chilo suppressalis (Striped Rice Stemborer)
24-well microtiter plates with artificial diet were treated with aqueous test solutions prepared from 10'000 ppm DMSO stock solutions by pipetting. After drying, the plates were infested with L2 larvae (6-8 per well). The samples were assessed for mortality, anti-feeding effect, and growth inhibition in comparison to untreated samples 6 days after infestation. Control of Chilo suppressalis by a test sample is given when at least one of the categories mortality, anti-feedant effect, and growth inhibition is higher than the untreated sample.

Spodoptera littoralis = assay: Activity against Spodoptera littoralis (Egyptian cotton leaf worm), cotton leaf discs; details: foliar, 72 h, application rate 200 ppm, L1 larvae, 3 days after infestation
Method: Activity Against Spodoptera littoralis (Egyptian Cotton Leaf Worm)
Cotton leaf discs were placed onto agar in 24-well microtiter plates and sprayed with aqueous test solutions prepared from 10'000 ppm DMSO stock solutions. After drying the leaf discs were infested with five L1 larvae. The samples were assessed for mortality, anti-feeding effect, and growth inhibition in comparison to untreated samples 3 days after infestation. Control of Spodoptera littoralis by a test sample is given when at least one of the categories mortality, anti-feedant effect, and growth inhibition is higher than the untreated sample.

CCS(=O)(=O)c1cc(C2(C#N)CC2)cnc1-c1coc2ccc(C(F)(F)F)cc2c1=O [P.1, 1-[5-ethylsulfonyl-6-[4-oxo-6-(trifluoromethyl)chromen-3-yl]-3-pyridyl]cyclopropanecarbonitrile]
≥ 80%: percent effect (mortality or growth inhibition) at 200 ppm (Diabrotica balteata) | mortality at 24 ppm (Myzus persicae [1]) | mortality at 200 ppm (Myzus persicae [2]) | percent effect (mortality or growth inhibition) at 200 ppm (Plutella xylostella) | percent effect (mortality or growth inhibition) at 200 ppm (Euschistus heros) | percent control (mortality, anti-feedant effect or growth inhibition) at 200 ppm (Chilo suppressalis) | percent control (mortality, anti-feedant effect or growth inhibition) at 200 ppm (Spodoptera littoralis)

CCS(=O)(=O)c1cc(C2(C#N)CC2)cnc1-c1coc2ccc(F)cc2c1=O [P.2, 1-[5-ethylsulfonyl-6-(6-fluoro-4-oxo-chromen-3-yl)-3-pyridyl]cyclo-propanecarbonitrile]
≥ 80%: percent effect (mortality or growth inhibition) at 200 ppm (Diabrotica balteata) | mortality at 24 ppm (Myzus persicae [1]) | percent effect (mortality or growth inhibition) at 200 ppm (Plutella xylostella) | percent effect (mortality or growth inhibition) at 200 ppm (Euschistus heros) | percent control (mortality, anti-feedant effect or growth inhibition) at 200 ppm (Chilo suppressalis) | percent control (mortality, anti-feedant effect or growth inhibition) at 200 ppm (Spodoptera littoralis)

CCS(=O)(=O)c1cc(C2(C#N)CC2)cnc1-c1coc2ccc(Cl)cc2c1=O [P.3, 1-[6-(6-chloro-4-oxo-chromen-3-yl)-5-ethylsulfonyl-3-pyridyl]-cyclopropanecarbonitrile]
≥ 80%: percent effect (mortality or growth inhibition) at 200 ppm (Diabrotica balteata) | mortality at 200 ppm (Myzus persicae [2]) | percent effect (mortality or growth inhibition) at 200 ppm (Plutella xylostella) | percent effect (mortality or growth inhibition) at 200 ppm (Euschistus heros) | percent control (mortality, anti-feedant effect or growth inhibition) at 200 ppm (Chilo suppressalis) | percent control (mortality, anti-feedant effect or growth inhibition) at 200 ppm (Spodoptera littoralis)

CCS(=O)(=O)c1cc(C2(C#N)CC2)cnc1-c1coc2ccc(C#N)cc2c1=O [P.4, 3-[5-(1-cyanocyclopropyl)-3-ethylsulfonyl-2-pyridyl]-4-oxo-chromene-6-carbonitrile]
≥ 80%: mortality at 24 ppm (Myzus persicae [1]) | percent effect (mortality or growth inhibition) at 200 ppm (Plutella xylostella)

CCS(=O)(=O)c1cc(C2(C#N)CC2)cnc1-c1coc2ccc(Br)cc2c1=O [P.5, 1-[6-(6-bromo-4-oxo-chromen-3-yl)-5-ethylsulfonyl-3-pyridyl]-cyclopropanecarbonitrile]
≥ 80%: percent effect (mortality or growth inhibition) at 200 ppm (Diabrotica balteata) | percent effect (mortality or growth inhibition) at 200 ppm (Plutella xylostella) | percent effect (mortality or growth inhibition) at 200 ppm (Euschistus heros) | percent control (mortality, anti-feedant effect or growth inhibition) at 200 ppm (Chilo suppressalis) | percent control (mortality, anti-feedant effect or growth inhibition) at 200 ppm (Spodoptera littoralis)

CCS(=O)(=O)c1cc(C2(C#N)CC2)cnc1-c1coc2ccc(I)cc2c1=O [P.6, 1-[5-ethylsulfonyl-6-(6-iodo-4-oxo-chromen-3-yl)-3-pyridyl]cyclo-propanecarbonitrile]
≥ 80%: percent effect (mortality or growth inhibition) at 200 ppm (Diabrotica balteata) | mortality at 200 ppm (Myzus persicae [2]) | percent effect (mortality or growth inhibition) at 200 ppm (Plutella xylostella) | percent effect (mortality or growth inhibition) at 200 ppm (Euschistus heros) | percent control (mortality, anti-feedant effect or growth inhibition) at 200 ppm (Chilo suppressalis) | percent control (mortality, anti-feedant effect or growth inhibition) at 200 ppm (Spodoptera littoralis)

CCS(=O)(=O)c1cc(C2(C#N)CC2)cnc1-c1coc2ccc(-c3cc(F)cc(F)c3)cc2c1=O [P.7, 1-[6-[6-(3,5-difluorophenyl)-4-oxo-chromen-3-yl]-5-ethylsulfonyl-3-pyridyl]-cyclopropanecarbonitrile]
≥ 80%: percent effect (mortality or growth inhibition) at 200 ppm (Diabrotica balteata) | mortality at 200 ppm (Myzus persicae [2]) | percent control (mortality, anti-feedant effect or growth inhibition) at 200 ppm (Spodoptera littoralis)

CCS(=O)(=O)c1cc(C2(C#N)CC2)cnc1-c1coc2ccc(-c3ccc(F)cc3)cc2c1=O [P.8, 1-[5-ethylsulfonyl-6-[6-(4-fluorophenyl)-4-oxo-chromen-3-yl]-3-pyridyl]-cyclopropanecarbonitrile]
≥ 80%: percent effect (mortality or growth inhibition) at 200 ppm (Plutella xylostella) | percent control (mortality, anti-feedant effect or growth inhibition) at 200 ppm (Chilo suppressalis)
